Assay results published in EP0606463B1, “NEUROMEDIN B RECEPTOR ANTAGONISTS” (The Administrators of The Tulane Educational Fund, priority 1992, dated 1994).
Where two headings read alike, the source gives them in different places. Where a SMILES comes first, the peptide text is derived from it. Bridges are numbered along the chain shown (N, C = ends). [ ]: non-standard residue; d: D form. 2Nal = N[C@@H](Cc1ccc2ccccc2c1)C(=O)O; d2Nal = N[C@H](Cc1ccc2ccccc2c1)C(=O)O

Columns and labels:
[1] = target: T1, NMB receptors on C-6 cells (Rattus norvegicus, UniProt P24053); assay: Binding of 125I-[D-Tyr0]NMB to C-6 glioblastoma cells; conditions: NMB Receptor, Ki by method of Cheng, read-out: Ki(nM) ^123I-NMB Binding
T1 construct: endogenous in cells; host or cells: rat glioblastoma C-6 cells
Experimental: Binding studies using rat glioblastoma C-6 or NMB-R transfected cells were performed as described previously [Benya, R. V. et al. Mol. Pharmacol. 42:1058 (1992); and Wang, L-H. et al. Biochem. J. 286:641 (1992)] by suspending disaggregated cells in binding buffer, which was composed of standing buffer ([…], 7.7 mM KCl, 1.0 mM EGTA, 0.02% soybean trypsin inhibitor) additionally containing 50 mM HEPES, 1 mM MgCl2, 1.5 mM CaCl2, 2.2 mM KH2PO4, 0.015% glutamine, and 0.2% BSA (w\v) (pH 7.4). Incubations contained 75 pM ^125I-[D-Tyr^0]NMB and 15 x 10^6 C-6 cells/ml or 2 x 10^6 NMB-R transfected cells/ml, for 60 min at 22°C. Nonsaturable binding of ^125I-[D-Tyr^0]NMB was te amount of radioactivity associated with C-6 cells or NMB-R transfected cells when the incubation mixture contained […]. Nonsaturable binding was < 15% of total binding in all experiments; all values are reported herein as saturable binding (i.e., total minus nonsaturable binding).

[2] = target: T2, NMB Receptor (Rattus norvegicus, UniProt P24053); assay: [3H]inositol phosphates (IP) in NMB-R transfected cells; type: cell-based
T2 construct: a full length NMB-preferring bombesin receptor clone generated from rat esophagus; expressed in transfected cells; host or cells: BALB 3T3 cells
T2 sequence (P24053 1-390): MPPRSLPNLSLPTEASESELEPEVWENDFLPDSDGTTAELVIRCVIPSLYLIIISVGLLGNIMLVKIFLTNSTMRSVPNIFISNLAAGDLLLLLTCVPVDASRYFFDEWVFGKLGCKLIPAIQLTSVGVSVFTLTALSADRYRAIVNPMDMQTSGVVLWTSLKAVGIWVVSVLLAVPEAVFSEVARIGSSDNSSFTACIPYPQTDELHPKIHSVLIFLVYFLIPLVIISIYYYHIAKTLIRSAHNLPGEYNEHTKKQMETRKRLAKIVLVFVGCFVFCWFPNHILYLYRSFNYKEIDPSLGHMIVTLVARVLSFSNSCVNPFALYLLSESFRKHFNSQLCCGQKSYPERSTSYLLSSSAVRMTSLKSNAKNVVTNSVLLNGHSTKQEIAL
Experimental: As described previously [Wada, E., et al. Neuron 6:421 (1991)], BALB 3T3 cells expressing a stably transfected rat NMB receptor (NMB-R transfected cells) were obtained using calcium phosphate precipitation of a full length NMB-preferring bombesin receptor clone generated from rat esophagus and subcloned into a modified version of the pCD2 plasmid. Cells were passaged every 3-4 days at confluence, using 0.1% trypsin in 1 mM EDTA. Rat glioblastoma C-6 tumor cells were maintained similarly and were passaged weekly at confluence. Both cell lines were cultured at 37°C in a 5% CO2 atmosphere. Rat AR 42J pancreatic acinar cells were cultured in Dulbecco's modified Eagle's medium (DMEM) without antibiotics and supplemented with 10% (vol/vol) fetal calf serum. The incubation atmosphere consisted of 10% CO2-90% humidified air at 37°C.
(§1) Total phosphoinositides in C-6 cells and in NMB-R transfected cells were determined as described previously, with minor modifications [Benya, R. V. et al. Mol. Pharmacol. 42:1058 (1992); and Wang, L-H. et al. Biochem. J. 286:641 (1992)]. Cells were grown to confluence in 24-well plates and then loaded with 100 µCi/ml myo-[2-^3H]inositol in Dulbecco's modified essential medium with 2% fetal bovine serum at 37°C for 48 hrs. Cells were washed and incubated in phosphoinositide buffer (standard buffer additionally containing 10 mM LiCl, 20 mM HEPES, 2 mM CaCl2, 2% BSA, and 1.2 mM MgSO4) for 15 min and then for 60 min at 37°C with agonists at various concentrations or with 3 nM NMB (a half-maximal effective concentration) and possible antagonists at different concentrations. Reactions were halted using ice-cold 1% HCl in methanol, and the inositol phosphates (IP) were isolated as described previously [Bologna, M. et al. Cancer 63:1714 (1989); and Endo, T. et al. J. Endocrinol. 131:313 (1991)]. Briefly, after loading of the anion exchange column, free [^3H]glycerophosphorylinositol was removed by washing with 5 mM disodium tetraborate in 60 mM sodium formate. Total [^3H]inositol phosphates were then eluted using 100 mM formic acid in 1.0 M ammonium formate as described previously [Benya, R. V. et al. Mol. Pharmacol. 42:1058 (1992); and Wang, L-H. et al. Biochem. J. 286:641 (1992)].

[3] = target: T3, GRP receptors on rat pancreatic acini (Rattus norvegicus, UniProt P52500); assay: Binding of 125I-[Tyr4]bombesin to pancreatic acini; conditions: read-out: Ki (nM) ^123I[Tyr^4]BnBinding
T3 construct: from tissue; host or cells: dispersed pancreatic acini
From the text: Nonsaturable binding was < 10% of total binding in all experiments.

[4] = target: T4, GRP Receptor (Rattus norvegicus, UniProt P52500); assay: Amylase release from rat pancreatic acini; type: cell-based
T4 construct: from tissue; host or cells: dispersed pancreatic acini

[5] = target: T5, rat NMB receptor (Rattus norvegicus, UniProt P24053); assay: Binding of 125I-[D-Tyr0]NMB to NMB-R transfected BALB 3T3 cells
T5 construct: a full length NMB-preferring bombesin receptor clone generated from rat esophagus; expressed in transfected cells; host or cells: BALB 3T3 cells
T5 sequence (P24053 1-390): T2 sequence (P24053 1-390)
Experimental: Cells were passaged every 3-4 days at confluence, using 0.1% trypsin in 1 mM EDTA. Rat glioblastoma C-6 tumor cells were maintained similarly and were passaged weekly at confluence. Both cell lines were cultured at 37°C in a 5% CO2 atmosphere. Rat AR 42J pancreatic acinar cells were cultured in Dulbecco's modified Eagle's medium (DMEM) without antibiotics and supplemented with 10% (vol/vol) fetal calf serum. The incubation atmosphere consisted of 10% CO2-90% humidified air at 37°C.

[6] = target: T6, GRP receptors on AR 42J cell membranes (Rattus norvegicus, UniProt P52500); assay: GRP membrane receptor assay (AR 42J cell membranes); type: binding; conditions: method of Cheng, unit inferred, read-out: affinity, ^125I-[Tyr^4]Bn
T6 construct: endogenous in cells; host or cells: rat AR 42J pancreatic acinar cells (membranes)

[7] = target: T7, NMB receptors on rat olfactory bulb membranes (Rattus norvegicus, UniProt P24053); assay: NMB membrane receptor assay (rat olfactory bulb membranes); type: binding; conditions: Rat Olfactory bulb membranes; method of Cheng; unit inferred; read-out: affinity, ^125I-NMB
T7 construct: Membranes were prepared from rat olfactory bulb (NMB membrane receptor assay); from tissue; host or cells: rat olfactory bulb membranes
T7 sequence (P24053 1-390): T2 sequence (P24053 1-390)

[8] = target: T8, mu opioid receptors (Rattus norvegicus, UniProt P33535); assay: mu opioid membrane assay ([3H]DAGO, rat forebrain membranes); type: binding; conditions: for inhibition of binding to mu opioid receptors: rat forebrain membranes, concentrations up to 10 µM
T8 construct: rat forebrain (TRH, mu and delta opioid membrane assays); from tissue; host or cells: rat forebrain membranes

[9] = target: T9, somatostatin receptors on AR 42J cells (Rattus norvegicus, UniProt P30680); assay: Somatostatin membrane receptor assay (AR 42J cell membranes); type: binding; conditions: for inhibition of binding of ^125I-[Tyr^11]SS-14 to somatostatin receptors: AR 42J cells, concentrations up to 10 µM
T9 construct: endogenous in cells; host or cells: rat AR 42J pancreatic acinar cells (membranes)

[10] = target: T10, NMB receptors on C-6 glioblastoma cells (Rattus norvegicus, UniProt P24053); assay: NMB-stimulated [3H]IP in C-6 glioblastoma cells; type: cell-based; conditions: C-6 glioblastoma cells; agonist without analog; basal 7.2±1.0
T10 construct: endogenous in cells; host or cells: rat glioblastoma C-6 cells
T10 sequence (P24053 1-390): T2 sequence (P24053 1-390)
Experimental: as §1, with “for 60 min at 37°C with agonists at various concentrations or with 3 nM NMB (a half-maximal effective concentration) and possible antagonists at different concentrations.” left out

[11] = NMB Receptor, Transfected Cells, read-out: IC50 (nM) NMB-stimulated [^3H]IP
[12] = NMB Receptor, Transfected Cells, Ki by method of Cheng, read-out: Ki (nM) ^123I-NMB Binding

T8 sequence (P33535 whole entry): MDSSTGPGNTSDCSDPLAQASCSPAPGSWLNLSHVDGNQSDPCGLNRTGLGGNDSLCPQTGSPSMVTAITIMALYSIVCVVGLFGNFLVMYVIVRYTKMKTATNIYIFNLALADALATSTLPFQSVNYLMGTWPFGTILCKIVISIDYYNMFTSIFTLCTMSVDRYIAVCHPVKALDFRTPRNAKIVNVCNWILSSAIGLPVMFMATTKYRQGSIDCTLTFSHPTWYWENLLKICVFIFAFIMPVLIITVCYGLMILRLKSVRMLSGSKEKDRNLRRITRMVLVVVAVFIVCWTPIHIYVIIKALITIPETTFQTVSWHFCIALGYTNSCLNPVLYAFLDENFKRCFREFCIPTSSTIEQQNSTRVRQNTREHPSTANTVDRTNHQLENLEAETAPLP
T9 sequence (P30680 whole entry): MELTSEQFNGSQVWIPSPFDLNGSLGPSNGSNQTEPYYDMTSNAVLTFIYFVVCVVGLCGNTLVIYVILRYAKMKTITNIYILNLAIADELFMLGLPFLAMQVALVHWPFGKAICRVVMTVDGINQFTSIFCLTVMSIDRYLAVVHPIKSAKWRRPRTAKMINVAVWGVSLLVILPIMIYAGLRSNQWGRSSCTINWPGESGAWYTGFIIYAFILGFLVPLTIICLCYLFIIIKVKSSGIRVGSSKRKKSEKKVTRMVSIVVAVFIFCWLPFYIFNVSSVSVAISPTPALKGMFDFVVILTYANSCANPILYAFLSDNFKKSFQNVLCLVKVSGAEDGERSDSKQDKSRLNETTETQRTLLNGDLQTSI
T4 sequence (P52500 whole entry): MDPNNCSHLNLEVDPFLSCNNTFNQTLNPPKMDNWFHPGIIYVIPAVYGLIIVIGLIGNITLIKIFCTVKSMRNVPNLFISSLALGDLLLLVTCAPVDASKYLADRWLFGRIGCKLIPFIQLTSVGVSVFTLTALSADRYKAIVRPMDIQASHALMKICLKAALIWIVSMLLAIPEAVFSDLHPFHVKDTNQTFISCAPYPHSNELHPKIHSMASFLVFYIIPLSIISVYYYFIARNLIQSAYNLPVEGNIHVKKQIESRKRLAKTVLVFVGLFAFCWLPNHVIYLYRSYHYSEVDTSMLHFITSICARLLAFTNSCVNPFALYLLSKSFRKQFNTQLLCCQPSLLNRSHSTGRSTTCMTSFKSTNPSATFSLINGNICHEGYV
T3 sequence (P52500 whole entry): as above
T6 sequence (P52500 whole entry): as above

NCCCC[C@@H]1NC(=O)[C@@H](Cc2c[nH]c3ccccc23)NC(=O)[C@H](Cc2ccc(O)cc2)NC(=O)[C@@H](NC(=O)[C@H](N)Cc2ccc3ccccc3c2)CSSC[C@@H](C(=O)N[C@@H](Cc2ccc3ccccc3c2)C(N)=O)NC(=O)[C@H](Cc2ccc3ccccc3c2)NC1=O [Analog #3, [Nal^6]-cyclo SS-octa] (H-[d2Nal]CY[dW]K[2Nal]C[2Nal]-NH2; disulfide 2-7)
Ki [1]: 997 ± 76 nM
IC50 [2, 11]: 2880 ± 188 nM
IC50 ([2]; NMB-R transfected cells, summary of Table 1, read-out: IC50 of NMB-stimulated increases in [^3H]IP): 3000 to 6600 nM
NMB-R Transfected Cells [^3H]IP Alone (10 µ M) ([2]; analog 10 µM alone, no-additive control 13 ± 3): 11 ± 1 dpm x 10^3
NMB-R Transfected Cells [^3H]IP Plus NMB (3 nM) ([2]; analog 10 µM plus NMB 3 nM, NMB without analog 186 ± 58): 65 ± 15 dpm x 10^3
Ki [3]: > 10000 nM
IC50 [4]: > 10000 nM
Rat Pancreatic Acini Amylase Release Alone (10µM) ([4]; analog 10 µM alone, no-additive control 4 ± 1): 3 ± 1 % total
Rat Pancreatic Acini Amylase Release Plus Bn(0.3 nM) ([4]; analog 10 µM plus Bn 0.3 nM, Bn without analog 15 ± 1): 15 ± 1 % total
Ki [5, 12]: 697 ± 64 nM
Ki ([5]; NMB-R transfected cells, summary of Table 1, read-out: K1): 700 to 800 nM
fold by which cyclo SS-octa was more potent than the analog ([5]; inhibition of ^125I-[Tyr^0]NMB binding to NMB-R transfected cells): 4 fold

CC(C)[C@@H]1NC(=O)[C@H](CCCCN)NC(=O)[C@@H](Cc2c[nH]c3ccccc23)NC(=O)[C@H](Cc2ccc(O)cc2)NC(=O)[C@@H](NC(=O)[C@H](N)Cc2ccc3ccccc3c2)CSSC[C@@H](C(=O)N[C@H](C(N)=O)[C@@H](C)O)NC1=O [Analog #5, [Thr^8]-cyclo-SS-octa]
Ki [1]: 3790 ± 1080 nM
IC50 [2, 11]: > 10000 nM
effect on NMB-stimulated increase in [^3H]IP ([2]; NMB-R transfected cells, 3 nM NMB, peptide 10 µM): no activity
Ki [6]: 3.9 ± 1.2 µM
Ki [7]: 0.8 ± 0.2 µM
Ki ([8]; Rat Forebrain membranes, method of Cheng, unit inferred, read-out: affinity, [^3H]DAGO): 0.002 ± 0.0014 µM
Ki [3]: > 10000 nM
Ki ([9]; AR 42J Cell Membranes, method of Cheng, unit inferred, read-out: affinity, ^125I-[Tyr^11]SS-14): 0.00029 ± 3e-05 µM
IC50 [4]: > 10000 nM
Ki ([5]; K1, NMB-R transfected cells, summary of Table 1): 14000 to 19000 nM
Ki [5, 12]: 14800 ± 2650 nM

CSCC[C@H](NC(=O)[C@H](CC(C)C)NC(=O)[C@H](Cc1c[nH]cn1)NC(=O)CNC(=O)[C@@H](NC(=O)[C@H](C)NC(=O)[C@H](Cc1c[nH]c2ccccc12)NC(=O)[C@H](Cc1c[nH]cn1)NC(=O)[C@H](CC(N)=O)NC(=O)CNC(=O)[C@H](CCCNC(=N)N)NC(=O)[C@@H]1CCCN1C(=O)[C@H](Cc1ccc(O)cc1)NC(=O)[C@H](CCSC)NC(=O)[C@H](CCCCN)NC(=O)[C@@H](NC(=O)[C@H](CC(C)C)NC(=O)[C@@H](NC(=O)[C@@H](NC(=O)CNC(=O)CNC(=O)CNC(=O)[C@H](C)NC(=O)[C@@H]1CCCN1C(=O)[C@H](CC(C)C)NC(=O)[C@@H]1CCCN1C(=O)[C@@H](N)C(C)C)[C@@H](C)O)C(C)C)[C@@H](C)O)C(C)C)C(N)=O [GRP, gastrin-releasing peptide]
inhibition of binding to mu opioid receptors [8]: Neither NMB nor GRP at concentrations up to 10 µ M inhibited binding
inhibition of binding of ^125I-[Tyr^11]SS-14 to somatostatin receptors [9]: Neither NMB nor GRP at concentrations up to 10 µ M inhibited binding

CSCC[C@H](NC(=O)[C@H](Cc1ccccc1)NC(=O)[C@H](Cc1c[nH]cn1)NC(=O)CNC(=O)[C@@H](NC(=O)[C@H](C)NC(=O)[C@H](Cc1c[nH]c2ccccc12)NC(=O)[C@H](CC(C)C)NC(=O)[C@H](CC(N)=O)NC(=O)CN)[C@@H](C)O)C(N)=O [NMB, neuromedin B]
increase in [^3H]IP caused by 3 nM NMB ([2]; NMB-R transfected cells): 14 fold
inhibition of binding to mu opioid receptors [8]: Neither NMB nor GRP at concentrations up to 10 µ M inhibited binding
[^3H]IP, NMB (10 nM) Alone [10]: 21.0 ± 1.8 dpm x 10^3
inhibition of binding of ^125I-[Tyr^11]SS-14 to somatostatin receptors [9]: Neither NMB nor GRP at concentrations up to 10 µ M inhibited binding
